What was measured:
Pythium Ultimum = assay: Pythium ultimum / liquid culture (seedling damping off); type: cell-based; details: Globisporangium ultimum, potato dextrose broth, 24° C., 2-3 days after application, read-out: disease control (inhibition of growth, photometrically)
[1] = system: Monographella Nivalis(Microdochium Nivale); assay: Monographella nivalis (Microdochium nivale) / liquid culture (foot rot cereals); type: cell-based; details: PDB potato dextrose broth, 24° C., 4-5 days after application, read-out: disease control (inhibition of growth, photometrically)
Procedure: (§1) 14 Monographella Nivalis(Microdochium Nivale)/Liquid Culture (Foot Rot Cereals) Conidia of the fungus from cryogenic storage were directly mixed into nutrient broth (PDB potato dextrose broth). After placing a DMSO solution of test compound into a 96-well microtiter plate, the nutrient broth containing the fungal spores was added. The test plates were incubated at 24° C. and the inhibition of growth was determined photometrically 4-5 days after application.

[2] = system: Mycosphaerella Graminicola(Septoria Tritici); assay: Mycosphaerella graminicola (Septoria tritici) / liquid culture (Septoria blotch); type: cell-based; details: Zymoseptoria tritici, PDB potato dextrose broth, 24° C., 4-5 days after application, read-out: disease control (inhibition of growth, photometrically)
Procedure: as §1, with “12 Mycosphaerella Graminicola(Septoria Tritici)/Liquid” for “14 Monographella Nivalis(Microdochium Nivale)/Liquid”, “(Septoria Blotch)” for “(Foot Rot Cereals)”

Gaeumannomyces Graminis = assay: Gaeumannomyces graminis / liquid culture (take-all of cereals); type: cell-based; details: PDB potato dextrose broth, 24° C., 4-5 days after application, read-out: disease control (inhibition of growth, photometrically)
Procedure: 13 Gaeumannomyces Graminis/Liquid Culture (Take-all of Cereals) Mycelial fragments of the fungus from cryogenic storage were directly mixed into nutrient broth (PDB potato dextrose broth). After placing a DMSO solution of test compound into a 96-well microtiter plate, the nutrient broth containing the fungal spores is added. The test plates were incubated at 24° C. and the inhibition of growth was determined photometrically 4-5 days after application.

[3] = system: Glomerella Lagenarium(Colletotrichum Ladenarium); assay: Glomerella lagenarium (Colletotrichum lagenarium) / liquid culture (anthracnose); type: cell-based; details: PDB potato dextrose broth, 24° C., 3-4 days after application, read-out: disease control (inhibition of growth, photometrically)
Procedure: as §1, with “10 Glomerella Lagenarium(Colletotrichum Ladenarium)/Liquid” for “14 Monographella Nivalis(Microdochium Nivale)/Liquid”, “(Anthracnose)” for “(Foot Rot Cereals)”, “measured” for “determined”, “3-4” for “4-5”

[4] = system: Mycosphaerella Arachidis(Cercospora Arachidicola); assay: Mycosphaerella arachidis (Cercospora arachidicola) / liquid culture (early leaf spot); type: cell-based; details: PDB potato dextrose broth, 24° C., 4-5 days after application, read-out: disease control (inhibition of growth, photometrically)
Procedure: as §1, with “11 Mycosphaerella Arachidis(Cercospora Arachidicola)/Liquid” for “14 Monographella Nivalis(Microdochium Nivale)/Liquid”, “(Early Leaf Spot)” for “(Foot Rot Cereals)”

Plasmopara Viticola = assay: whole plant or invertebrate; type: in vivo; details: foliar, read-out: disease control
Fusarium Culmorum = assay: microbe, parasite or virus in culture; type: cell-based; details: read-out: disease control (inhibition of growth, photometrically)
Sclerotinia Sclerotiorum = assay: Sclerotinia sclerotiorum / liquid culture (cottony rot); type: cell-based; details: PDB potato dextrose broth, 24° C., 3-4 days after application, read-out: disease control (inhibition of growth, visually)
Procedure: 17 Sclerotinia Sclerotiorum/Liquid Culture (Cottony Rot) Mycelia fragments of a newly grown liquid culture of the fungus were directly mixed into nutrient broth (PDB potato dextrose broth). After placing a (DMSO) solution of the test compounds into a microtiter plate (96-well format) the nutrient broth containing the fungal material was added. The test plates were incubated at 24° C. and the inhibition of growth was determined visually 3-4 days after application.

[5] = system: Botryotinia Fuckeliana(Botrytis Cinerea); assay: Botryotinia fuckeliana (Botrytis cinerea) / liquid culture (gray mould); type: cell-based; details: Vogels broth, 24° C., 3-4 days after application, read-out: disease control (inhibition of growth, photometrically)
Procedure: as §1, with “9 Botryotinia Fuckeliana(Botrytis Cinerea)/Liquid” for “14 Monographella Nivalis(Microdochium Nivale)/Liquid”, “(Gray Mould)” for “(Foot Rot Cereals)”, “(Vogels” for “(PDB potato dextrose”, “3-4” for “4-5”

CON=Cc1ccc(-c2cc3c(cc2Cl)COB3O)o1 (racemic) [Compound 23, 1-[5-(5-chloro-1-hydroxy-3H-2,1-benzoxaborol-6-yl)-2-furyl]-N-methoxy-methanimine]
≥ 80%: inhibition at 20 ppm (Pythium Ultimum) | inhibition at 20 ppm [1] | inhibition at 20 ppm [2] | inhibition at 20 ppm (Gaeumannomyces Graminis) | inhibition at 20 ppm [3] | inhibition at 20 ppm [4]

OB1OCc2cc(Cl)c(-c3ccncc3)cc21 [Compound 7]
≥ 80%: inhibition at 20 ppm (Pythium Ultimum) | pest or weed control at 200 ppm (Plasmopara Viticola)

Cn1nccc1-c1cc2c(cc1Cl)COB2O [Compound 9]
≥ 80%: inhibition at 20 ppm (Pythium Ultimum) | pest or weed control at 200 ppm (Plasmopara Viticola)

Cn1nccc1-c1cc2c(cc1F)COB2O [Compound 10]
≥ 80%: inhibition at 20 ppm (Fusarium Culmorum) | inhibition at 20 ppm (Sclerotinia Sclerotiorum) | inhibition at 20 ppm (Pythium Ultimum) | inhibition at 20 ppm [5] | inhibition at 20 ppm [2] | inhibition at 20 ppm [3] | inhibition at 20 ppm [4]

OB1OCc2cc(Cl)c(-c3cnco3)cc21 [Compound 18]
≥ 80%: inhibition at 20 ppm (Fusarium Culmorum) | inhibition at 20 ppm (Sclerotinia Sclerotiorum) | inhibition at 20 ppm (Pythium Ultimum) | inhibition at 20 ppm [1] | inhibition at 20 ppm [2] | inhibition at 20 ppm (Gaeumannomyces Graminis) | inhibition at 20 ppm [3] | inhibition at 20 ppm [4]

OB1OCc2cc(Cl)c(-c3cncnc3O)cc21 [Compound 19]
≥ 80%: inhibition at 20 ppm (Pythium Ultimum)

CSc1ncc(-c2cc3c(cc2Cl)COB3O)c(C)n1 [Compound 20]
≥ 80%: inhibition at 20 ppm (Fusarium Culmorum) | inhibition at 20 ppm (Pythium Ultimum) | inhibition at 20 ppm [1]

Cc1nc(Nc2ccccc2)nc(C2CC2)c1-c1cc2c(cc1Cl)COB2O [Compound 24]
≥ 80%: inhibition at 20 ppm [1]

O=Cc1ccc(-c2cc3c(cc2F)COB3O)o1 [Compound 26]
≥ 80%: inhibition at 20 ppm (Fusarium Culmorum) | inhibition at 20 ppm (Sclerotinia Sclerotiorum) | inhibition at 20 ppm (Pythium Ultimum) | inhibition at 20 ppm [1] | inhibition at 20 ppm [5] | inhibition at 20 ppm [2] | inhibition at 20 ppm [3] | inhibition at 20 ppm [4]

O=Cc1csc(-c2cc3c(cc2Cl)COB3O)c1 [Compound 34]
≥ 80%: inhibition at 20 ppm (Fusarium Culmorum) | inhibition at 20 ppm (Pythium Ultimum) | inhibition at 20 ppm [1] | inhibition at 20 ppm [2] | inhibition at 20 ppm (Gaeumannomyces Graminis) | inhibition at 20 ppm [3] | inhibition at 20 ppm [4]

OB1OCc2cc(Cl)c(-c3cc4ccccc4o3)cc21 [Compound 37]
≥ 80%: inhibition at 20 ppm [1] | pest or weed control at 200 ppm (Plasmopara Viticola) | inhibition at 20 ppm (Gaeumannomyces Graminis) | inhibition at 20 ppm [3]

N#Cc1ccc(-c2cc3c(cc2Cl)COB3O)o1 [Compound 41]
≥ 80%: inhibition at 20 ppm (Pythium Ultimum) | inhibition at 20 ppm [1] | pest or weed control at 200 ppm (Plasmopara Viticola) | inhibition at 20 ppm [2] | inhibition at 20 ppm (Gaeumannomyces Graminis) | inhibition at 20 ppm [3]

N#Cc1csc(-c2cc3c(cc2Cl)COB3O)c1 [Compound 43]
≥ 80%: inhibition at 20 ppm (Pythium Ultimum) | inhibition at 20 ppm [1] | pest or weed control at 200 ppm (Plasmopara Viticola) | inhibition at 20 ppm (Gaeumannomyces Graminis) | inhibition at 20 ppm [3]

OB1OCc2cc(Cl)c(-c3cc(Br)cs3)cc21 [Compound 46]
≥ 80%: inhibition at 20 ppm (Pythium Ultimum) | inhibition at 20 ppm [1] | inhibition at 20 ppm [2] | inhibition at 20 ppm (Gaeumannomyces Graminis) | inhibition at 20 ppm [3]

OB1OCc2cc(Cl)c(-c3cc4ccccc4s3)cc21 [Compound 47]
≥ 80%: inhibition at 20 ppm (Pythium Ultimum) | inhibition at 20 ppm [1] | pest or weed control at 200 ppm (Plasmopara Viticola) | inhibition at 20 ppm [2] | inhibition at 20 ppm (Gaeumannomyces Graminis) | inhibition at 20 ppm [4]

Cn1nc(-c2cc3c(cc2F)COB3O)c2ccccc21 [Compound 48]
≥ 80%: inhibition at 20 ppm (Pythium Ultimum) | inhibition at 20 ppm [1] | pest or weed control at 200 ppm (Plasmopara Viticola) | inhibition at 20 ppm (Gaeumannomyces Graminis)

Cc1cscc1-c1cc2c(cc1Cl)COB2O [Compound 53]
≥ 80%: inhibition at 20 ppm (Pythium Ultimum) | inhibition at 20 ppm [1] | inhibition at 20 ppm (Gaeumannomyces Graminis) | inhibition at 20 ppm [3] | inhibition at 20 ppm [4]

Cc1nn(C)c(C)c1-c1cc2c(cc1F)COB2O [Compound 55]
≥ 80%: inhibition at 20 ppm (Pythium Ultimum) | pest or weed control at 200 ppm (Plasmopara Viticola)

COc1ncc(-c2cc3c(cc2F)COB3O)c(OC)n1 [Compound 58]
≥ 80%: inhibition at 20 ppm (Pythium Ultimum) | inhibition at 20 ppm [1]

OB1OCc2cc(F)c(-c3ccc(N4CCOCC4)nc3)cc21 [Compound 59]
≥ 80%: inhibition at 20 ppm (Pythium Ultimum)

CCn1cc(-c2cc3c(cc2F)COB3O)cn1 [Compound 60]
≥ 80%: inhibition at 20 ppm (Pythium Ultimum) | inhibition at 20 ppm [1] | pest or weed control at 200 ppm (Plasmopara Viticola) | inhibition at 20 ppm (Gaeumannomyces Graminis) | inhibition at 20 ppm [3] | inhibition at 20 ppm [4]

OB1OCc2cc(F)c(-c3cc4ccccc4[nH]3)cc21 [Compound 61]
≥ 80%: inhibition at 20 ppm (Sclerotinia Sclerotiorum) | inhibition at 20 ppm (Pythium Ultimum) | inhibition at 20 ppm [1] | pest or weed control at 200 ppm (Plasmopara Viticola) | inhibition at 20 ppm [2] | inhibition at 20 ppm (Gaeumannomyces Graminis) | inhibition at 20 ppm [4]

CCOc1ccc(-c2cc3c(cc2F)COB3O)cn1 [Compound 64]
≥ 80%: inhibition at 20 ppm (Pythium Ultimum) | inhibition at 20 ppm [1] | pest or weed control at 200 ppm (Plasmopara Viticola)

COc1ncc(-c2cc3c(cc2Cl)COB3O)c(OC)n1 [Compound 69]
≥ 80%: inhibition at 20 ppm (Pythium Ultimum)

OB1OCc2cc(Cl)c(-c3ccc(N4CCOCC4)nc3)cc21 [Compound 70]
≥ 80%: inhibition at 20 ppm (Pythium Ultimum) | inhibition at 20 ppm [1] | inhibition at 20 ppm [2] | inhibition at 20 ppm [4]

CCn1cc(-c2cc3c(cc2Cl)COB3O)cn1 [Compound 71]
≥ 80%: inhibition at 20 ppm (Pythium Ultimum) | inhibition at 20 ppm [1] | pest or weed control at 200 ppm (Plasmopara Viticola) | inhibition at 20 ppm [4]

COc1ccc(-c2cc3c(cc2F)COB3O)cn1 [Compound 76]
≥ 80%: inhibition at 20 ppm (Pythium Ultimum) | inhibition at 20 ppm [1]

Cn1cc(-c2cc3c(cc2F)COB3O)cn1 [Compound 77]
≥ 80%: inhibition at 20 ppm (Pythium Ultimum) | inhibition at 20 ppm (Gaeumannomyces Graminis) | inhibition at 20 ppm [4]

OB1OCc2cc(F)c(-c3cnccc3C(F)(F)F)cc21 [Compound 78]
≥ 80%: inhibition at 20 ppm (Pythium Ultimum) | pest or weed control at 200 ppm (Plasmopara Viticola)

Cc1cc(-c2cc3c(cc2F)COB3O)c(C)s1 [Compound 80]
≥ 80%: inhibition at 20 ppm (Pythium Ultimum) | inhibition at 20 ppm [1] | inhibition at 20 ppm [3] | inhibition at 20 ppm [4]

OB1OCc2cc(F)c(-c3cncc(C(F)(F)F)c3)cc21 [Compound 82]
≥ 80%: inhibition at 20 ppm (Sclerotinia Sclerotiorum) | inhibition at 20 ppm (Pythium Ultimum) | inhibition at 20 ppm [1] | inhibition at 20 ppm [2] | inhibition at 20 ppm (Gaeumannomyces Graminis) | inhibition at 20 ppm [3] | inhibition at 20 ppm [4]

COc1ccc(-c2cc3c(cc2Cl)COB3O)cn1 [Compound 85]
≥ 80%: inhibition at 20 ppm (Pythium Ultimum) | inhibition at 20 ppm [1]

Cn1cc(-c2cc3c(cc2Cl)COB3O)cn1 [Compound 86]
≥ 80%: inhibition at 20 ppm (Pythium Ultimum) | inhibition at 20 ppm [1] | inhibition at 20 ppm (Gaeumannomyces Graminis) | inhibition at 20 ppm [4]

OB1OCc2cc(Cl)c(-c3cnccc3C(F)(F)F)cc21 [Compound 87]
≥ 80%: inhibition at 20 ppm (Pythium Ultimum) | inhibition at 20 ppm [1] | pest or weed control at 200 ppm (Plasmopara Viticola)

OB1OCc2cc(Cl)c(-c3ccncc3Cl)cc21 [Compound 89]
≥ 80%: inhibition at 20 ppm (Pythium Ultimum) | inhibition at 20 ppm [1] | pest or weed control at 200 ppm (Plasmopara Viticola) | inhibition at 20 ppm [2] | inhibition at 20 ppm [3] | inhibition at 20 ppm [4]

Source: patent US10314308B2, “Microbiocidal benzoxaboroles” (SYNGENTA PARTICIPATIONS AG, priority 2015, dated 2019)
